From patent publication US20060281689A1, “Method for modulating activity of HCV protease through use of a novel HCV protease inhibitor to reduce duration of treatment period” (Schering Corporation, priority 2005, published 2006)

Assays:
hepatitis C virus [1] = experiment: Parallel group study in patients afflicted with hepatitis C virus, 14 days, mean viral load (HCV RNA); format: in vivo; details: either dose (200 mg or 400 mg three times a day orally) in combination with PEG-Intron 1.5 mcg/kg/week
Experimental: Preferably, in the practice of the invention, the concentration of HCV-RNA is quantitatively measured by research-based reverse transcriptase polymerase chain reaction (RT-PCR) assay well known to the skilled clinician. Specifically, the Hepatitis C virus (HCV) RNA is measured by extracting total RNA from plasma or serum samples and using an in-house real-time reverse transcriptase polymerase chain reaction (RT-PCR) assay. The amplification target is the 5′-untranslated region (UTR) of the HCV genome. An internal RNA control is added to each sample to assess the efficiency of RNA extraction. Appropriate negative and positive controls are added in each assay run. The assay method has been validated against the WHO International Standard for HCV. HCV RNA amount in a sample is reported as copies of HCV RNA per mL of sample and also as HCV IU per mL of sample. Results for sample at or above 100 copies of HCV RNA per mL are denoted as POS. On the other hand, ND stands for <100 copies of HCV RNA or <29 IU of HCV per mL of sample. […] With respect to quantifying HCV RNA with the rt-PCR methodology referred to herein, one (1) copy of HCV RNA equals 0.29 IU, such that 100 copies of HCV RNA per milliliter of plasma is 29 International Units per milliliter of plasma. […] HCV genotype is determined by sequencing the PCR amplified DNA fragment of the 5′-UTR of the HCV genome. […]

hepatitis C virus [2] = experiment: Model of viral dynamics modified with Total ε: theoretical effectiveness rate and viral load over a 48 week treatment period; set-up: species or system patients
Excerpt: The effectiveness of suppression of viral production through treatment in accordance with the methods of the present invention can be calculated through a combination pharmacokinetic and pharmacodynamic analysis with a modified version of the absorption and elimination model described in the art. See Powers K A. et al. (Seminars in Liver Disease, 23 Suppl. 1:13-8, 2003). The absorption and elimination model, which incorporates the Neumann et al. model of viral dynamics, calculates simulated changes in drug concentration and effectiveness of single drug treatment in Equations […], 6, and 7. See Powers K A. et al. (Seminars in Liver Disease, 2003, 23 Suppl. 1:13-8), and Neumann A U, Lam N P, Dahari H, et al. (Science 1998, 282: 103-107). […]
Equation 7 incorporates the effects of a delay between a drug binding to its receptor and beginning its biological action. […] Thus, for t>τ, [formula] the effectiveness rate, ε, of a drug at time, t, is calculated by Equation 7.
For the present invention, the Neumann et al. model of Equation 1 and the absorption and elimination model of Equations 5, 6, and 7, is modified to incorporate calculations for monitoring the effectiveness rate of suppressing viral production by multiple drug treatment through combination therapy with the HCV protease inhibitor and HCV agents including interferon, interferon pegylated, and/or ribavirin. The absorption and elimination model in Equations 5, 6, and 7 is modified by including an effectiveness rate of a combination therapy, Total ε, which is based upon combining the individual efficacy, ε, over time, t, as calculated by Equation 7, for each drug used in the combination therapy of the present invention. The effectiveness rate, Total ε, is calculated with the formula […], where ε(t)Pl is the effectiveness of a HCV protease inhibitor and where ε(t)Ag is the effectiveness of an HCV agent, both independently calculated by Equation 7. […]

Structure (SMILES): CC(C)(C)NC(=O)N[C@H](C(=O)N1CC2C([C@H]1C(=O)NC(CC1CCC1)C(=O)C(N)=O)C2(C)C)C(C)(C)C (some centres unmarked) [HCV protease inhibitor]
- viral load in the second week of treatment (hepatitis C virus [1]): continued to decline
- decrease in mean viral load at the end of the first week of treatment (hepatitis C virus [1]; compared with PEG-Intron alone): much steeper decrease in mean viral load
- theoretical effectiveness rate, ε, over time, t (hepatitis C virus [2]; 200 mg three times a day orally with PEG-Intron 1.5 mcg/kg/week subcutaneously, 48 weeks): 0.989
- time of treatment until viral load is below 29 IU/ml plasma (100 copies per ml plasma) (hepatitis C virus [2]; 200 mg three times a day orally with PEG-Intron 1.5 mcg/kg/week subcutaneously, theoretical calculations): approximately 14 weeks
- effectiveness rate, ε, over time, t (hepatitis C virus [2]; 400 mg three times a day orally with PEG-Intron 1.5 mcg/kg/week subcutaneously, 48 weeks): 0.997
